# Laboratory results as given in the NIST ThermoML archive (doi:10.1021/acs.jced.6b00269).
# Numbers after ± are expanded uncertainties.
# Details: for viscosity / mass density: 101.33 kPa, Liquid; for viscosity: Cone and plate viscometry; for mass density: Vibrating tube method; for Glass transition temperature: DSC
SMILES,viscosity (278.15 K) [mPa·s],viscosity (283.15 K) [mPa·s],mass density (283.15 K) [kg/m3],viscosity (288.15 K) [mPa·s],mass density (288.15 K) [kg/m3],viscosity (293.15 K) [mPa·s],mass density (293.15 K) [kg/m3],mass density (295.15 K) [kg/m3],viscosity (298.15 K) [mPa·s],mass density (298.15 K) [kg/m3],viscosity (303.15 K) [mPa·s],mass density (303.15 K) [kg/m3],viscosity (308.15 K) [mPa·s],mass density (308.15 K) [kg/m3],viscosity (313.15 K) [mPa·s],mass density (313.15 K) [kg/m3],viscosity (318.15 K) [mPa·s],mass density (318.15 K) [kg/m3],mass density (323.15 K) [kg/m3],mass density (328.15 K) [kg/m3],also measured
"CCCCCCn1cc[n+](C)c1C.O=[N+]([O-])c1cn[n-]c1 [1-hexyl-2,3-dimethylimidazolium 4-nitropyrazolide]",14600 ± 1800,6910 ± 800,1129.4 ± 6.9,3490 ± 370,1126 ± 6.9,1910 ± 180,1122.4 ± 6.8,1121 ± 6.8,1110 ± 100,1118.9 ± 6.8,691 ± 58,1115.7 ± 6.8,450 ± 35,1112.4 ± 6.7,303 ± 23,1109.2 ± 6.7,213 ± 15,1106 ± 6.6,1102.8 ± 6.6,1099.7 ± 6.6,viscosity (323.15 K): 147 ± 10 mPa·s; viscosity (328.15 K): 112 ± 8 mPa·s; viscosity (333.15 K): 87 ± 6 mPa·s; mass density (333.15 K): 1096.6 ± 6.5 kg/m3; viscosity (338.15 K): 69 ± 5 mPa·s; mass density (338.15 K): 1093.5 ± 6.5 kg/m3; viscosity (343.15 K): 56 ± 4 mPa·s; mass density (343.15 K): 1090.4 ± 6.4 kg/m3; mass density (348.15 K): 1087.4 ± 6.4 kg/m3; mass density (353.15 K): 1084.3 ± 6.4 kg/m3; Glass transition temperature: -47 ± 2 °C
CCCCCCCC[P+](CC)(CC)CC.Cc1ncc([N+](=O)[O-])[n-]1 [triethyloctylphosphonium 2-methyl-5-nitroimidazolide],3720 ± 390,2280 ± 220,1037.8 ± 5.8,1440 ± 130,1034.6 ± 5.8,940 ± 81,1031.5 ± 5.8,1030.3 ± 5.7,637 ± 52,1028.6 ± 5.7,446 ± 35,1025.6 ± 5.7,321 ± 24,1022.7 ± 5.7,237 ± 17,1019.8 ± 5.6,179 ± 13,1016.9 ± 5.6,1014.1 ± 5.6,1011.2 ± 5.5,viscosity (323.15 K): 138 ± 9 mPa·s; viscosity (328.15 K): 109 ± 7 mPa·s; viscosity (333.15 K): 80 ± 5 mPa·s; mass density (333.15 K): 1008.4 ± 5.5 kg/m3; mass density (338.15 K): 1005.6 ± 5.5 kg/m3; mass density (343.15 K): 1002.7 ± 5.4 kg/m3; mass density (348.15 K): 999.9 ± 5.4 kg/m3; mass density (353.15 K): 997.1 ± 5.4 kg/m3; Glass transition temperature: -67 ± 2 °C
CCCCCCCCCCCCCC[P+](CCCCCC)(CCCCCC)CCCCCC.Cc1ncc([N+](=O)[O-])[n-]1 [trihexyl(tetradecyl)phosphonium 2-methyl-5-nitroimidazolide],5890 ± 650,3730 ± 390,948.1 ± 4.9,2420 ± 240,945.1 ± 4.9,1620 ± 150,941.9 ± 4.8,940.6 ± 4.8,1110 ± 100,938.7 ± 4.8,786 ± 66,935.7 ± 4.8,569 ± 46,932.8 ± 4.8,420 ± 32,929.8 ± 4.7,317 ± 24,926.9 ± 4.7,924 ± 4.7,921.1 ± 4.7,viscosity (323.15 K): 244 ± 18 mPa·s; viscosity (328.15 K): 192 ± 13 mPa·s; viscosity (333.15 K): 153 ± 11 mPa·s; mass density (333.15 K): 918.2 ± 4.6 kg/m3; viscosity (338.15 K): 125 ± 8 mPa·s; mass density (338.15 K): 915.3 ± 4.6 kg/m3; mass density (343.15 K): 912.5 ± 4.6 kg/m3; mass density (348.15 K): 909.6 ± 4.6 kg/m3; mass density (353.15 K): 906.8 ± 4.6 kg/m3; Glass transition temperature: -79 ± 2 °C
"CCC=Cn1cc[n+](C)c1C.O=[N+]([O-])c1cn[n-]c1 [1-but-1-enyl-2,3-dimethylimidazolium 4-nitropyrazolide]",6650 ± 750,3260 ± 340,1191.5 ± 7.7,1720 ± 170,1187.7 ± 7.7,973 ± 86,1184.2 ± 7.6,1182.8 ± 7.6,590 ± 48,1180.8 ± 7.6,380 ± 29,1177.5 ± 7.5,255 ± 19,1174.1 ± 7.5,179 ± 13,1170.8 ± 7.5,131 ± 9,1167.6 ± 7.4,1164.4 ± 7.4,1161.1 ± 7.3,viscosity (323.15 K): 99 ± 7 mPa·s; viscosity (328.15 K): 77 ± 5 mPa·s; viscosity (333.15 K): 62 ± 4 mPa·s; mass density (333.15 K): 1157.9 ± 7.3 kg/m3; viscosity (338.15 K): 50 ± 3 mPa·s; mass density (338.15 K): 1154.7 ± 7.2 kg/m3; mass density (343.15 K): 1151.5 ± 7.2 kg/m3; mass density (348.15 K): 1148.3 ± 7.2 kg/m3; mass density (353.15 K): 1145.2 ± 7.1 kg/m3; Glass transition temperature: -53 ± 2 °C
CCC=C[P+](CC)(CC)CC.O=[N+]([O-])c1cn[n-]c1 [(buten-1-yl)triethylphosphonium 4-nitropyrazolide],–,–,–,–,–,–,–,–,134 ± 9,–,102 ± 7,–,79 ± 5,–,63 ± 4,–,52 ± 3,–,–,–,"Normal melting temperature (Crystal, DTA): 39 ± 2 °C"
CCCC[n+]1cccn1C.O=S(=O)([N-]S(=O)(=O)C(F)(F)F)C(F)(F)F [1-butyl-2-methylpyrazolium bis(trifluoromethylsulfonyl)imide],214 ± 15,155 ± 11,1465.4 ± 12,116 ± 8,1460.7 ± 12,88 ± 6,1456 ± 12,1454.06 ± 12,70 ± 5,1451.2 ± 12,55 ± 4,1446.5 ± 11,–,1441.8 ± 11,–,1437.1 ± 11,–,1432.4 ± 11,1427.7 ± 11,1423 ± 11,mass density (333.15 K): 1418.4 ± 11 kg/m3; mass density (338.15 K): 1413.8 ± 11 kg/m3; mass density (343.15 K): 1409.1 ± 11 kg/m3; mass density (348.15 K): 1404.6 ± 11 kg/m3; mass density (353.15 K): 1400 ± 11 kg/m3; Glass transition temperature: -82 ± 2 °C
